# Assay results taken from patent US11992469B2, “Targeting mitochondrial dynamics by mitochondrial fusion promoter M1 as a treatment strategy for nervous system injury” (City University of Hong Kong, priority 2020, dated 2024).
# What was measured:
# [1] = tested on: adult dorsal root ganglion (DRG) neurons; test: Neurite outgrowth assay in primary cultures of axotomized adult DRG neurons; assay type: cell-based, C57BL/6 mice; details: 2.5 μM, 17 hours
# Method: FIG. 1 depicts data showing that M1 increases the length of regenerating axons which is directly proportional to the size of mitochondria in DRG neurons. Wildtype adult DRG neurons were treated with M1 at a concentration of 2.5 μM, and 0.1% DMSO was used as vehicle controls. After 17 hours of incubation, cultures were fixed and immunostained with anti-βIII-tubulin antibodies for neurite outgrowth assay. […] Scale bar: 500 μm. […] More than 80 DRG neurons were quantified from each treatment group. Mean±SEM of triplicates. ***P<0.001; Student's t-test. n.s., not significant. CTL, control.
# The current study aimed to investigate the therapeutic potential of mitochondrial fusion promoter M1 for treating patients with nerve injuries. First, we examined if mitochondrial fusion promoter M1 could enhance the intrinsic growth capacity of adult neurons, a critical determinant for successful axon regeneration after nerve injuries. We used primary cultures of axotomized dorsal root ganglion (DRG) neurons as an in vitro model to assess the extent of neurite outgrowth after treating the neurons with mitochondrial fusion promoter M1. Primary cultures of DRG neurons were prepared from adult C57BL/6 mice (8-12 weeks old). The DRG neurons were first dissected out, digested with collagenase/dispase II solution (Roche Diagnostics), trypsinized and dissociated mechanically by three flame-polish Pasteur pipettes with different diameters. […]
# For neurite outgrowth assay, 30 non-overlapping images were captured at 10× magnifications using Nikon Ni-E epifluorescence microscope equipped with a motorized stage. Total neurite length of each neuron from each condition were automatically measured using WIS-NeuroMath software (Weizmann Institute of Science). At least 250 neurons were quantified from each condition to obtain the average total neurite length. […]
# [2] = tested on: sciatic nerve crush injury (peripheral nerve injury model); test: Quantification of GAP-43-positive regenerating axons after sciatic nerve crush injury; assay type: in vivo, C57BL/6 mice; details: 3 days after injury; 5 mm distal to crushed site
# Method: (§1) FIG. 2 depicts an experimental paradigm for assessing the growth-promoting effects of mitochondrial fusion promoter M1 after peripheral nerve injury. Sciatic nerve crush injury was performed on adult male C57BL/6 mice. Immediately after crush, 20-60 μg of mitochondrial fusion promoter M1 was directly applied on top of the crushed site, followed by a total of 6 administrations (i.e. morning and evening administration with at least 8 hours apart). Sciatic nerve pinch test and axon quantification were performed on day 3 post-injury.
# FIG. 3 depicts data showing that mitochondrial fusion promoter M1 accelerates in vivo axonal regrowth after sciatic nerve crush injury in adult mice. Sciatic nerve crush injury was performed on adult C57BL/6 mice (8-12 weeks old). A total of 6 administrations of mitochondrial fusion promoter M1 was directly applied to the crushed site for 3 consecutive days. Sciatic nerve pinch test and axon quantification were performed 3 days after injury. […]
# (§2) We first confirmed the growth-promoting effects of mitochondrial fusion promoter M1 using sciatic nerve pinch test. The results from sciatic nerve pinch test were subsequently verified by quantifications of GAP-43-positive regenerating axons 3 days after sciatic nerve crush injury.
# [3] = tested on: optic nerve crush injury (CNS injury model); test: Optogenetic stimulation of RGCs and local field potential (LFP) recordings in superior colliculus after optic nerve crush; assay type: in vivo, mice; details: for eye-evoked RMS LFP amplitude in superior colliculus: six weeks after optic nerve crush
# Method: Two weeks before LFP recordings, AAV overexpressing a fusion of channelrhodopsin 2 and mCherry was injected into the injured eye of the mice. […] Blue lines indicated optical stimulation in the injured eye. (B) Eye-evoked root-mean-square (RMS) LFP amplitudes were automatically determined using Spike2 software with customized MATLAB program. Administration of M1 markedly elevated the eye-evoked RMS LFP amplitudes compared with vehicle-treated controls. Combination of phosphatase and tensin homolog (Pten) deletion and M1 treatment further increased the RMS LFP amplitudes after optical stimulations of injured RGCs. Mean±SEM (n=4-5 per group). *P<0.05, one-way ANOVA with Bonferroni post-hoc test.
# To record evoked LFP in SC, mice received intravitreal injection of AAV-ChR2-mCherry […]. Six weeks after optic nerve crush injury, we stimulated the injured RGCs by placing an optical fiber with blue laser at 473 nm illuminated at the periphery of the left eye (injured). Evoked LFPs in response to the optical stimuli from ChR2-overexpressing RGCs were recorded in the SC. There were virtually no LFP amplitudes that could be detected from the vehicle-treated mice (FIG. 7A), which was consistent with the histology results. […] Treating the mice with M1 and Pten deletion restored almost 25% of the maximal LFP amplitude compared with uninjured mice.
# To optically stimulate the RGCs in vivo, AAV expressing a fusion of channelrhodopsin-2 and mCherry (AAV-ChR2-mCherry) at viral titre of 1×10^13 vg/ml was injected intravitreally into both eyes two weeks before optogenetics experiments. For intravitreal injection, a micropipette was gently inserted into the peripheral retina of the eye, just behind the ora serrata, placed with an angle to avoid damages to the lens. […]
# The data recorded from the system was used as digital input signals for synchronization of the optogenetics setup. Data were analyzed offline using spike2 software (Version 8) and customized MATLAB program. Root-mean-square (RMS) amplitudes after optical stimulation was calculated (FIG. 7).
# [4] = tested on: MEF Mfn1−/− or Mfn2−/− cultures; details: Mfn1 or Mfn2 knockout; cited from earlier work
# [5] = tested on: dopaminergic neuron-like SH-SY5Y cells; details: 1-methyl-4-phenyl-pyridinium (MPP+); cited from earlier work
# [6] = tested on: optic nerve crush injury (CNS injury model); test: Axon regeneration (CTB-555-labelled axons) after optic nerve crush injury; assay type: in vivo, C57BL/6 mice
# [7] = tested on: sciatic nerve crush injury (peripheral nerve injury model); test: Sciatic nerve pinch test after sciatic nerve crush injury; assay type: in vivo, C57BL/6 mice; details: 3 days after injury
# Method: as §1
# FIG. 3 depicts data showing that mitochondrial fusion promoter M1 accelerates in vivo axonal regrowth after sciatic nerve crush injury in adult mice. […] Sciatic nerve pinch test and axon quantification were performed 3 days after injury. […]
# as §2
# Following the completion of dosing paradigm of M1, sciatic nerve pinch test was performed on the ipsilateral nerves 3 days after sciatic nerve crush injury. […] The distance (in mm) was recorded from the crushed site to the most distal point of the nerve where initial withdrawal response was generated after pinching (FIG. 3A).
# [8] = tested on: retinal ganglion cells (RGCs); test: Retinal ganglion cell (RGC) survival after optic nerve crush injury (RBPMS staining); assay type: in vivo, C57BL/6 mice
smiles,measurement,setting,value
CC(=NNc1c(Cl)cc(Cl)cc1Cl)c1cc(Cl)ccc1O [M1],cell survival of DRG neurons,[1],no cell survival effect
same,mitochondrial size in DRG neurons (distal axons),[1],increase in mitochondrial size
same,increase in neurite outgrowth from adult DRG neurons,[1]; vs 0.1% DMSO vehicle,49%
same,increase in number of GAP-43-positive regenerating axons vs vehicle controls,[2],2 fold
same,restored share of maximal LFP amplitude compared with uninjured mice,[3]; M1 and Pten deletion,~25%
same,eye-evoked RMS LFP amplitude in superior colliculus,[3]; M1-treated mice,59.82±3.6 μV
same,eye-evoked RMS LFP amplitude in superior colliculus,[3]; Pten-knockout (Pten-KO) and M1-treated mice,88.36±3.13 μV
same,restoration of mitochondrial fragmentation,[4],completely restored
same,protection from MPP+-induced neurotoxicity,[5],protected
same,axon regeneration after optic nerve crush,"[6]; day 14 post-injury, 1 μg intravitreal at days 0 and 7",robust axon regeneration
same,distance reached by regenerating axons,[6]; day 28 post-injury,reach the optic chiasm
same,axon regeneration after optic nerve crush,"[6]; day 28 post-injury, 1 μg intravitreal at days 0, 7, 14 and 21",robust axon regeneration
same,distance reached by regenerating axons,"[6]; six weeks after optic nerve crush injury, intravitreal injection",reaching superior colliculus
same,dose of maximal effect on distal extent of axonal regrowth (pinch test),[7],20 µg/day
same,increase in most distal axonal regrowth (sciatic nerve pinch test),"[7]; 20-60 μg applied to crushed site, 6 administrations",55%
same,RGC survival vs vehicle-treated controls,[8]; 14 days after optic nerve crush injury,more retinal ganglion cells (RGCs) were survived
same,RGC survival vs vehicle-treated controls,[8]; 28 days after optic nerve crush injury,more retinal ganglion cells (RGCs) were survived
